The values that follow are results of earlier work, collected in paper PMC2837554 (ChemMedChem, 2010).

One data set addresses aggregated Aβ. As to conditions: reported value.

`CN(C)c1ccc(/C=C/C2=CC(=C/C=C3C=CC(=[N+](C)C)C=C3)/O[B-](F)(F)O2)cc1` [CRANAD-2]: the Kd at Aβ aggregates was 38 nM.

In the case of `Cc1ccc2c(c1)sc(-c1ccc(N(C)C)cc1)[n+]2C` [ThT, Thioflavin T], the Kd at aggregated Aβ is 2000 nM.
